For one compound, Ki results are on record in publication PMC6044636 (ACS Omega, 2016).

For the assay, the target named is A2AR (Homo sapiens, UniProt P29274). Format: binding.
A2AR, sequence (P29274 whole entry): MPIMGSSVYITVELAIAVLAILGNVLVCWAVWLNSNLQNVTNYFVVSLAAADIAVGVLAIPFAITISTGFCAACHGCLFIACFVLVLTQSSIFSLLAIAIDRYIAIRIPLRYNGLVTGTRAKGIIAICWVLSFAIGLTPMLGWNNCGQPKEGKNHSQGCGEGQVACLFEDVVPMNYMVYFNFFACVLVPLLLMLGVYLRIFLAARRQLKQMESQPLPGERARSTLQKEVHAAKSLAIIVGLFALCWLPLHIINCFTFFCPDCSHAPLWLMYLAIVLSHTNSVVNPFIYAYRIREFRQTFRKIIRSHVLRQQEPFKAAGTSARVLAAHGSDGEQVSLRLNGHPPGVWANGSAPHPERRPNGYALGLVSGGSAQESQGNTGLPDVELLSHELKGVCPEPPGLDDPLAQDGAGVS

As usually defined, the Ki is the equilibrium dissociation constant of an inhibitor or competing ligand from its target. As for `Cn1c(-n2nccn2)nc2c(N)nc(CCC3CCCCC3)nc21` [Compound 8, 2-(2-Cyclohexylethyl)-9-methyl-8-(2H-1,2,3-triazol-2-yl)-9H-purin-6-amine], the affinity corresponds to a Ki of 1.2 nM.
